In patent US20240124528A1, “ANTAGONIST OF INTERLEUKIN-17B RECEPTOR (IL-17RB) AND USE THEREOF” (Academia Sinica, priority 2020, published 2024):

Legend:
[1] = system: pancreatic cancer cells expressing IL-17RB; assay: RT-qPCR of cytokine gene expression (CCL20, TFF1) after peptide pretreatment and rIL-17B; assay type: cell-based, human; settings: CFPAC1 and PDX-derived cells; peptide 50 ng/ml 30 mins, then rIL-17B 2 hrs
Text: (§1) FIGS. 7A to 7J include charts showing that disruption of the interaction between IL-17RB and MLK4 by the loop peptide blocks oncogenic progression. (FIG. 7A) Peptides TAT48-57 (Control) (SEQ ID NO: 21) and TAT-IL-17RB403-416 (Loop) (SEQ ID NO: 30) used for the following experiments. (FIG. 7B) Immunoblotting analysis of IL-17RB binding to MLK4 with Loop peptide treatment. 293T cells expressing Flag-MLK4 and HA-IL-17RB were pretreated with the control and loop peptides with different dose (0, 0.1, 1, 10, 50, 100 ng/ml) for 30 mins, and then added rIL-17B for 30 mins. […] CCL20 and TFF/mRNA expression of these cells were measured by RT-qPCR (n=3) (FIG. 7D), the same cells were for invasion assay (n=4) (FIG. 7E) and SACF assay (n=4) (FIG. 7F). […] (FIG. 7I) The experimental EKP mice (n=7 for each group) were euthanized at Day 56, and the metastatic tumor nodules in the lungs were counted. […]
(§2) FIGS. 19A to 19D include charts showing that treatment with the loop peptide suppresses aggressive behavior of patient-derived pancreatic tumor cells. […] (FIG. 19C and FIG. 19D) These cells were measured by RT-qPCR for the cytokine gene mRNA expression (n=3), or for Invasion assay (n=4) (FIG. 19C) and SACF assay (n=4) (FIG. 19D). […]

[2] = system: pancreatic cancer cells expressing IL-17RB; assay: Invasion assay after peptide treatment; assay type: cell-based, human; settings: CFPAC1 and PDX-derived cells treated with peptide
Text: as §1, §2

[3] = system: pancreatic cancer cells expressing IL-17RB; assay: Soft agar colony formation (SACF) assay after peptide treatment; assay type: cell-based, human; settings: CFPAC1 and PDX-derived cells treated with peptide
Text: as §1, §2
Soft agar colony formation assay was performed as described (7). […] Crystal violet-stained colonies greater than 50 μm in size were counted and analyzed objectively by light microscopy.

CFPAC1-GFP/Luc cells = assay: Orthotopic CFPAC1-GFP/Luc xenograft pancreatic cancer model in NOD-SCID mice; assay type: in vivo, mouse
[4] = system: DCs derived from mouse bone marrow; assay type: cell-based
Protocol: (FIG. 24A) Flow chart describing the experimental design for testing the effects of anti-IL-17RB antibody and loop peptide on IL-17E-induced expression of IL-4 and IL-13 in peripheral blood mononuclear cells (PBMCs). PBMCs were purified by Ficoll-paque and used for the following experiments. (FIG. 24B to FIG. 24E) IL-4 and IL-13 expression induced by IL-17B or IL-17E in the PBMCs was determined by RT-qPCR after mIgG or anti-IL-17RB antibody pretreatment (FIG. 24B and FIG. 24C) and control or loop peptide pretreatment (FIG. 24D and FIG. 24E), respectively. (FIG. 24F and FIG. 24G) The DCs derived from mouse bone marrow were treated with the control or loop peptides, separately. (FIG. 24F) Flow cytometry analysis using anti-CD80, CD86 and MHC-II antibodies was performed to determine the activity of the DCs after incubation with the control or loop peptides for 48 hrs. (FIG. 24G) The activities of DCs were quantified by gating the area of the CD80, CD86 and MHC-II-positive cells (n=3). Data are mean±s.d.

[5] = NOD-SCID mice, peptide 160 μg/100 μl PBS i.p. twice per week

“RKKRRQRRRVCDGTCGKSEGSPS (IL-17RB inhibitory peptide, fusion protein) [loop peptide]” was tested, and the “cytokine gene expression (CCL20, TFF1 mRNA)” value [1] was “diminished”, the invasion ability [2] was “diminished” and the “colony formation ability (SACF)” value [3] was “diminished”. For the same sequence, the “distant metastases of the pancreatic tumors to liver and lung (IVIS)” value (CFPAC1-GFP/Luc cells; NOD-SCID mice euthanized at Day 34) was “significantly suppressed”, the “expression of phospho-IL-17RB in the pancreatic tumors (IHC)” value (CFPAC1-GFP/Luc cells; [5]) was “inhibited” and the “lifespan (Kaplan-Meier survival analysis)” value (CFPAC1-GFP/Luc cells; [5]) was “prolonged”. For the same sequence, the “tumor growth (IVIS bioluminescence)” value (CFPAC1-GFP/Luc cells; [5]) was “significantly impeded”, the pancreatic tumor progression (CFPAC1-GFP/Luc cells; orthotopic xenograft, NOD-SCID mice) was “suppresses” and the “bone marrow-derived dendritic cell activation (CD80, CD86, MHC-II)” value [4] was “does not suppress IL-17E-induced IL-4 and IL-13 mRNA expression in PBMCs or affect”.
